Laboratory results taken from patent publication US20100093532A1, “Pesticidal Mixtures Comprising Phenylsemicarbazone and Clothianidin” (BASF SE, priority 2007, published 2010).

Tested on: Mediterranean fruitfly (Ceratitis capitata)
Experiment: Control of Mediterranean fruitfly, egg and larval mortality in 96-well microtiter plates with insect diet
Assay type: in vivo
Settings: sprayed onto insect diet with C. capitata eggs, 5 days at 28±1° C., 80±5% RH, egg and larval mortality visually assessed
Protocol: For evaluating control of Mediterranean fruitfly (Ceratitis capitata) the test unit consisted of 96-well-microtiter plates containing an insect diet and 50-80 C. capitata eggs. The compounds or mixtures were formulated using a solution containing 75% water and 25% DMSO. Different concentrations of formulated compounds or mixtures were sprayed onto the insect diet at 5 μl, using a custom built micro atomizer, at two replications.
For experimental mixtures in these tests identical volumes of both mixing partners at the desired concentrations respectively, were mixed together.
After application, microtiter plates were incubated at 28±1° C., 80±5% RH (relative humidity) for 5 days. Egg and larval mortality was then visually assessed.

SMILES | Average Control (%) (Metaflumizone 20 ppm) | Average Control (%) (Clothianidin 2 ppm)
N#Cc1ccc(CC(=NNC(=O)Nc2ccc(OC(F)(F)F)cc2)c2cccc(C(F)(F)F)c2)cc1 (racemic) [Metaflumizone, 2-[2-(4-cyanophenyl)-1-[3-(trifluoromethyl)phenyl]ethylidene]-N-[4-(trifluoromethoxy)phenyl]hydrazinecarboxamide] | 0% | –
CN/C(=N\[N+](=O)[O-])NCc1cnc(Cl)s1 [Clothianidin, (E)-1-(2-chloro-1,3-thiazol-5-ylmethyl)-3-methyl-2-nitroguanidine] | – | 0%
